IC50 and Activity data for one compound are collected here from ChEMBL document CHEMBL1150964, “Munchiwarin, a prenylated chalcone from crotalaria trifoliastrum” (J Nat Prod, 1998).

≈ marks a conversion by molar mass, not a printed value. Calls of active or inactive are those of the source. The calls are words filed in the database; no cut-off is given here.

One experiment relates to Col2. In words: Cytotoxicity against human Col2 cells. It is filed as functional, cell-based.
Experiment [1] has as its system KB. In words: Cytotoxicity against drug-resistant human KB cells in presence of vinblastine. It is filed as functional, cell-based.
The subject of experiment [2] is KB. In words: Cytotoxicity against drug-resistant human KB cells in absence of vinblastine. It counts as functional, cell-based.
Experiment [3] relates to KB. Kind of experiment: Cytotoxicity against human KB cells. It counts as functional, cell-based.
Experiment [4] in a line: Cytotoxicity against human BC1 cells. It is filed as functional, cell-based.
The target in experiment [5] is Human immunodeficiency virus type 1 reverse transcriptase (Human immunodeficiency virus 1) (UniProt Q72547). In words: Inhibition of HIV1 reverse transcriptase.

On to `CC(C)=CCC1=C/C(=C(O)\C=C\c2ccc(O)cc2)C(=O)C(CC=C(C)C)(CC=C(C)C)C1=O` [MUNCHIWARIN], for which the IC50 was 9 µg/mL (≈ 19.5 µM) with Col2; 13 µg/mL in the experiment on KB [1]; 14 µg/mL (≈ 30.4 µM) in the experiment with KB [2]; 11 µg/mL (≈ 23.9 µM) with KB [3]; 9 µg/mL (≈ 19.5 µM) in experiment [4]. In addition, the outcome in experiment [5] was inactive.

A word on the IC50: it is the concentration needed to halve the response being measured.
